Experimental data from ChEMBL document CHEMBL1133506, “3-(3,5-Dimethoxyphenyl)-1,6-naphthyridine-2,7-diamines and related 2-urea derivatives are potent and selective inhibitors of the FGF receptor-1 tyrosine kinase” (J Med Chem, 2000).

Assays:
[1] = target: T1, Fibroblast growth factor receptor 1 (Homo sapiens, UniProt P11362)
Description: Inhibition of the phosphorylation of a random glutamate-tyrosine (4:1) copolymer by isolated Fibroblast growth factor receptor 1.

[2] = target: Platelet-derived growth factor receptor beta (Mus musculus, UniProt P05622)
Description: Inhibition of the phosphorylation of a random glutamate-tyrosine (4:1) copolymer by isolated mouse Platelet-derived growth factor protein.

C6 = assay: Inhibition of PDGF-dependent rat glioma C6 cell proliferation
HUVEC [3] = assay: Inhibition of in vitro cell Human umbilical vein endothelial (HUVEC) cell proliferation
Ovarian cancer cell line = assay: Inhibition of human ovarian carcinoma (A90) FGF-R overexpressing cell proliferation
HUVEC [4] = assay: Inhibition of Matrigel invasion assay in HUVEC cells; assay type: functional, cell-based; settings: Homo sapiens
HUVEC [5] = assay: (§1) Inhibition of microcapillary growth in HUVEC cells; assay type: functional, cell-based; settings: Homo sapiens
[6] = target: T1, Fibroblast growth factor receptor 1; assay: Inhibition of bFGF-mediated tyrosine phosphorylation; assay type: functional
[7] = target: Proto-oncogene tyrosine-protein kinase Src (Gallus gallus) (UniProt P00523); assay: Inhibition of the phosphorylation of a random glutamate-tyrosine (4:1) copolymer by isolated avian c-Src protein.
Mus musculus [8] = assay: Ratio of treated to control tumor mass on last therapy day in lewis lung murine tumor at 200 mg/kg dose; assay type: functional
Mus musculus [9] = assay: Difference in days for treated (T) and control (C) tumors to reach 750 mg in mammary 16/c murine tumor at 80 mg/kg; assay type: functional
M5076 [10] = assay: Weight change in murine M5076 sarcoma tumor at 200 mg/kg peroral dose days 8-16; assay type: functional, organism-based; set-up: dose 200 mg/kg; settings: Mus musculus
M5076 [11] = assay: Ratio of treated to control tumor mass on last therapy day in M5076 sarcoma murine tumor at 200 mg/kg; assay type: functional, Mus musculus
M5076 [12] = assay: Difference in days for treated (T) and control (C) tumors to reach 750 mg in murine M5076 sarcoma tumor at 200 mg/kg; assay type: functional, Mus musculus
Mus musculus [13] = assay: Weight change in mammary 16/c murine tumor at 200 mg/kg peroral dose for days 1-9; assay type: functional, organism-based; set-up: dose 200 mg/kg
Mus musculus [14] = assay: Difference in days for treated (T) and control (C) tumors to reach 750 mg in mammary 16/c murine tumor at 200 mg/kg; assay type: functional
[15] = tested on: Lewis lung carcinoma cell line; assay: Weight change in lewis lung murine tumor at 200 mg/kg peroral dose for days 4-12; assay type: functional, Mus musculus; settings: route oral
Mus musculus [16] = assay: Difference in days for the treated (T) and control (C) tumors to reach 750 mg in lewis lung murine tumor at 200 mg/kg; assay type: functional
Mus musculus [17] = assay: Ratio of treated to control tumor mass on last therapy day in mammary 16/c murine tumor at 200 mg/kg dose; assay type: functional
Mus musculus [18] = assay: Weight change in mammary 16/c murine tumor at 80 mg/kg peroral dose for schedule q12hx2, days 1-9; assay type: functional; settings: route oral
HUVEC [19] = assay: as §1; settings: Homo sapiens

Sequence of Platelet-derived growth factor receptor beta (P05622 whole entry): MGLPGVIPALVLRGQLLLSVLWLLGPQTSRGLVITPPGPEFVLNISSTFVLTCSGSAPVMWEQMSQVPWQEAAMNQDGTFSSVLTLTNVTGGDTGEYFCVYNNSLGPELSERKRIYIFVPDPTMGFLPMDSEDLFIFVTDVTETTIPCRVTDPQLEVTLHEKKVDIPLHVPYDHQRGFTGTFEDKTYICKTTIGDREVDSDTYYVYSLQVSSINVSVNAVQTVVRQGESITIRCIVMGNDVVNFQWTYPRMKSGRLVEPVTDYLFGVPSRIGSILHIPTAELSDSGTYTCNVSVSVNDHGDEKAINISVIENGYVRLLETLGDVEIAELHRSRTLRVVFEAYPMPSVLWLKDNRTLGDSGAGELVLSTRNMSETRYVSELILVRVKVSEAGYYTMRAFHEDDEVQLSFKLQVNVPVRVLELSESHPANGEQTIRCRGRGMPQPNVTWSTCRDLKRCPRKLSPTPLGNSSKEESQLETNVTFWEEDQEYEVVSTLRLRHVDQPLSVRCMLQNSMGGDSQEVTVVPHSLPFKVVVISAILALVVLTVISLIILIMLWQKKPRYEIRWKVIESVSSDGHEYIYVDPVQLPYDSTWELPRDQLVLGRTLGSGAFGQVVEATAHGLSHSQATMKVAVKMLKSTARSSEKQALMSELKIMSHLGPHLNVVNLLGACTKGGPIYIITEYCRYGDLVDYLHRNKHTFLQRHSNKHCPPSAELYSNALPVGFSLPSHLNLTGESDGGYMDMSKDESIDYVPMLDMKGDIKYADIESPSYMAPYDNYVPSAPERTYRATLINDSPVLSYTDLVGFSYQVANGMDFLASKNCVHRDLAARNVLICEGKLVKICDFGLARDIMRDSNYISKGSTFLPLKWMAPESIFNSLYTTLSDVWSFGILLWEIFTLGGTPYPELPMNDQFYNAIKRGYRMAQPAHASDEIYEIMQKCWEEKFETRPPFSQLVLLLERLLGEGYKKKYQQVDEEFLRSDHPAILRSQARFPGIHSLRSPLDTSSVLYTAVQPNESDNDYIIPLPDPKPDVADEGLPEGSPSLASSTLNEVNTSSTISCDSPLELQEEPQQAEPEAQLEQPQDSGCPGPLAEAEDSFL
T1 sequence (P11362 whole entry): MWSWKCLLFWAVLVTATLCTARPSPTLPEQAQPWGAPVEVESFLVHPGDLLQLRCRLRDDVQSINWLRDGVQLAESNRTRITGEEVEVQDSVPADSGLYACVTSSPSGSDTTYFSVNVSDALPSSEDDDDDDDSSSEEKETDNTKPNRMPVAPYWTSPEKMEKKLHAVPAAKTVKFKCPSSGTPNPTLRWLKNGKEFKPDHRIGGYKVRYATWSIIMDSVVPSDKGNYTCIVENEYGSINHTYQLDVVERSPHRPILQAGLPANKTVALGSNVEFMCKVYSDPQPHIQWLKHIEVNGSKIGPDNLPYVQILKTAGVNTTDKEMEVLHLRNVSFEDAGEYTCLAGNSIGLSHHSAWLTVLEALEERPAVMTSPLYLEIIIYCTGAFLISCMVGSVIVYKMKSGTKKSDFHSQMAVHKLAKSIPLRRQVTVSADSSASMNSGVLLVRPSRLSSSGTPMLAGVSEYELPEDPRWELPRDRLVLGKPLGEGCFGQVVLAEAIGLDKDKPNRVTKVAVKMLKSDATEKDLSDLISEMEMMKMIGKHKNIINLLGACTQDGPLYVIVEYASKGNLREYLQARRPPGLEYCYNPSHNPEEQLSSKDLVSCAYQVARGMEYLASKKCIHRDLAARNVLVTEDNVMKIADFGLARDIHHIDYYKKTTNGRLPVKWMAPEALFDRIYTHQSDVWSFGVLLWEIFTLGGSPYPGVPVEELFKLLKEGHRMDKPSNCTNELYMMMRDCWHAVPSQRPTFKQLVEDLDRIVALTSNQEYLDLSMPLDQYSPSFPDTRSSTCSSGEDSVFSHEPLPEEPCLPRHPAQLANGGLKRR

| IC50 [1] | IC50 [2] | IC50 (Ovarian cancer cell line) | SMILES | IC50 (C6) | IC50 (HUVEC [3]) | further results |
| --- | --- | --- | --- | --- | --- | --- |
| 2800 nM | 35000 nM |  | Nc1cc2nc(N)c(-c3c(Cl)cccc3Cl)cc2cn1 |  |  |  |
| 120 nM | 1800 nM |  | CC(C)(C)NC(=O)Nc1nc2cc(N)ncc2cc1-c1c(Cl)cccc1Cl |  |  |  |
| 200 nM | > 50000 nM | 17000 nM | COc1cc(OC)cc(-c2cc3cnc(N)cc3nc2N)c1 | 8900 nM | 820 nM |  |
| 130 nM |  |  | CCNC(=O)Nc1nc2nc(N)ncc2cc1-c1c(Cl)cccc1Cl |  |  |  |
| 130 nM | 1100 nM |  | CC(C)(C)NC(=O)Nc1nc2nc(N)ncc2cc1-c1c(Cl)cccc1Cl |  |  |  |
| 160 nM | > 50000 nM | 11000 nM | COc1cc(OC)cc(-c2cc3cnc(NC(=O)NC(C)(C)C)cc3nc2NC(=O)NC(C)(C)C)c1 | 13000 nM | 17 nM | IC50 (HUVEC [5]): 10 nM |
| 230 nM | > 50000 nM |  | COc1cc(OC)cc(-c2cc3cnc(N)nc3nc2N)c1 |  |  |  |
| 150 nM | 11000 nM |  | CCNC(=O)Nc1nc2cc(N)ncc2cc1-c1c(Cl)cccc1Cl |  |  |  |
| 29 nM | > 50000 nM | 9300 nM | CCNC(=O)Nc1nc2cc(N)ncc2cc1-c1cc(OC)cc(OC)c1 | 8000 nM | 170 nM |  |

The remaining lines, values behind:

| SMILES | IC50 [1] | IC50 [2] | IC50 (Ovarian cancer cell line) | IC50 (C6) | IC50 (HUVEC [3]) | further results |
| --- | --- | --- | --- | --- | --- | --- |
| CC(C)(C)NC(=O)Nc1nc2cc(N)ncc2cc1-c1ccccc1 | 1900 nM | 2600 nM |  |  |  |  |
| COc1cc(OC)cc(-c2cc3cnc(N)nc3nc2NC(=O)NC(C)(C)C)c1 | 600 nM |  | 15000 nM | > 25000 nM | 580 nM | IC50 (HUVEC [4]): 1100 nM; IC50 (HUVEC [5]): 100 nM |
| COC(=O)C1=C(c2ccccc2)c2ccccc2C1=O |  |  |  |  |  | IC50 [6]: 5100 nM |
| Nc1cc2nc(N)c(-c3ccccc3)cc2cn1 | 17000 nM | 17000 nM |  |  |  |  |
| Nc1ncc2cc(-c3c(Cl)cccc3Cl)c(N)nc2n1 |  |  |  |  |  | IC50 [7]: 210 nM |
| COc1cc(OC)cc(-c2cc3cnc(NC(=O)C(F)(F)F)cc3nc2N)c1 | 61 nM | > 50000 nM | 17000 nM | 9000 nM | 4900 nM |  |
| COc1cc(OC)cc(-c2cc3cnc(NC(C)=O)cc3nc2NC(=O)NC(C)(C)C)c1 | 25 nM | 4700 nM | 12000 nM | 650 nM | 4 nM | T/C (Mus musculus [8]): 109%; T-C (Mus musculus [9]): 10.8 days; Weight change (M5076 [10]): Weight gain; T/C (M5076 [11]): 78%; IC50 (HUVEC [4]): 7 nM; T-C (M5076 [12]): 1 days; Weight change (Mus musculus [13]): Weight gain; T-C (Mus musculus [14]): 11.3 days; IC50 (HUVEC [5]): 0.01 nM; Weight change [15]: -0.4 g; T-C (Mus musculus [16]): 0 days; T/C (Mus musculus [17]): 0%; Weight change (Mus musculus [18]): -0.7 g |
| CNC(=O)Nc1nc2cc(N)ncc2cc1-c1cc(OC)cc(OC)c1 | 95 nM | > 50000 nM |  |  |  |  |
| COc1cc(OC)cc(-c2cc3cnc(N)cc3nc2NC(=O)Nc2ccccc2)c1 | 510 nM | > 50000 nM |  |  |  |  |
| COc1cc(OC)cc(-c2cc3cnc(NCCCN4CCOCC4)cc3nc2NC(=O)NC(C)(C)C)c1 |  | 45000 nM | 920 nM | 3100 nM | 85 nM | IC50 (HUVEC [19]): 1 nM |
| COc1cc(OC)cc(-c2cc3cnc(N)cc3nc2NC(=O)NC(C)(C)C)c1 | 42 nM | 38000 nM | 1200 nM | 8500 nM | 5.5 nM | IC50 (HUVEC [4]): > 10000 nM; IC50 (HUVEC [5]): 100 nM |
| Cn1c(SSc2c(C(=O)Nc3ccccc3)c3ccccc3n2C)c(C(=O)Nc2ccccc2)c2ccccc21 |  |  |  |  |  | IC50 [6]: 4500 nM |
| Cc1c[nH]c(/C=C2\C(=O)Nc3ccccc32)c1CCC(=O)O |  |  |  |  |  | IC50 [6]: 20000 nM |
| CCNC(=O)Nc1nc2cc(N)ncc2cc1-c1ccccc1 | 1300 nM | 7700 nM |  |  |  |  |
